What was measured:
Assay type in all cases: physicochemical
[1] = Thermogravimetric analysis (TGA), onset of degradation on heating; conditions: heated at 10° C./min from 25° C.
Method: Thermogravimetric analysis (TGA) was performed in TA Instruments TG2950 (TA Instruments, New Castle, Del.). The samples were scanned at 10° C./minute with a dry nitrogen purge at 60 mL/minute.
For TGA analysis, the sample was heated at 10° C./min from 25° C. to 150° C. The air dried amorphous material contained about 5 wt % residual solvent. Since the TGA data also indicated degradation begins at 90° C., the residual solvent can be removed by holding the sample in the TGA for 1 hour at 25° C. (FIG. 5). At the end of the hour, the weight reached a constant value and the sample had lost 5% of its weight.
For the TGA analysis, the sample was heated at 10° C./min from 25° C. to 150° C. The air dried amorphous material contained some (˜10 wt %) residual methanol (FIG. 10). […] (FIG. 11). At the end of the hour, the weight reached a constant value and the sample had lost 10% of its weight.
For the TGA analysis, the sample was heated at 10° C./min from 25° C. to 200° C. The air dried amorphous material contained some (˜7 wt %) residual methanol. […] (FIG. 16). At the end of the hour, the weight reached a constant value and the sample had lost 7% of its weight.

[2] = HPLC potency of the isolated amorphous material, before and after drying
Method: For High Pressure Liquid Chromatography (HPLC), the sample isolated by evaporating methanol was analyzed by HPLC for potency. […] By careful drying at lower temperatures, the potency loss could be alleviated.
For the HPLC analysis, the sample isolated by evaporating methanol was analyzed by HPLC for potency. […] When the sample was re-analyzed after drying in the TGA at 25° C. or 70° C., the potency remained at 99 wt %. Therefore, the presence of Eudragit EPO improved the stability of the amorphous phase.

[3] = Physical stability of the amorphous material isolated by evaporating a methanolic solution
Excerpt: Amorphous Cefdinir was isolated by evaporating a methanolic solution.
Stable amorphous Cefdinir with Eudragit EPO was made and isolated by evaporating a methanolic solution.
Amorphous cefdinir with PVP was made and isolated by evaporating a methanolic solution.

SMILES: C=CC1=C(C(=O)O)N2C(=O)C(NC(=O)C(=NO)c3csc(N)n3)[C@H]2SC1 (single isomer, unassigned) [Amorphous Cefdinir, 7-[2-(2-aminothiazol-4-yl)-2-hydroxyiminoacetamide]-3-vinyl-3-cephem-4-carboxylic acid (syn isomer)]
- temperature at which degradation begins (TGA) [1]: 90 °C
- potency by HPLC after drying ([2]; reanalyzed after drying in the TGA at 25° C. or 70° C.): 93%
- potency by HPLC ([2]; sample isolated by evaporating methanol, after accounting for residual solvent): 98%
- physical stability [3]: physically stable
